Data published in US20150118306A1, “COMPOSITIONS COMPRISING SULFORAPHANE OR A SULFORAPHANE PRECURSOR AND A MILK THISTLE EXTRACT OR POWDER” (Nutramax Laboratories, Inc., priority 2012, published 2015).

Assays:
[1] = system: myrosinase; experiment: Equimolar conversion of glucoraphanin to sulforaphane by myrosinase, HPLC (Example 4); format: biochemical, broccoli
Protocol: A two-part experiment was conducted to further elucidate the role of ascorbic acid in modulating myrosinase activity. […] A control sample contained no ascorbic acid, and the enzymatic conversion proceeded unassisted by a co-factor. PART 1. […] PART 2. While keeping the amount of broccoli seed extract fixed at 250 mg, the concentration of ascorbic acid was varied from 0.4 mmol/Liter to 3.8 mmol/Liter.

[2] = system: myrosinase; experiment: Conversion of glucoraphanin to sulforaphane in simulated intestinal fluid (Example 5); format: biochemical, broccoli; conditions: 38° C., ascorbic acid 0.25 to 1.00 mmol/Liter, 2 hours, FIG. 4
Protocol: Simulated Intestinal Fluid (SIF) powder, a commercially supplied concentrate closely approximating the human intestinal content in terms of composition, pH and ionic strength, was used. The experiment utilized a USP Dissolution Apparatus 2 (paddles), where into six dissolution vessels 500 mL of Simulated Intestinal Fluid was dispensed, along with 150 mg of freeze-dried broccoli sprout powder as a source of myrosinase. […] Aliquots were withdrawn every 15 minutes, and assayed for sulforaphane.

[3] = system: heme oxygenase-1 (HO-1); conditions: oral administration; mammary epithelium; Sprague-Dawley rats; cited from earlier work
[4] = system: NAD(P)H:quinine oxidoreductase (NQO1); conditions: oral administration; mammary epithelium; Sprague-Dawley rats; cited from earlier work
[5] = system: HepG2 cells; experiment: Glutathione levels in HepG2 cell lysates, o-phthalaldehyde fluorescence (Example 6); format: cell-based, human; conditions: alone or combined
Protocol: The following study was conducted to determine the effect of the combination of sulforaphane and silibinin on glutathione levels. Glutathione plays an important role in the body, as it can serve as an antioxidant, detoxifier, and immunity enhancer. Decreased levels of glutathione can cause a patient to be susceptible to oxidative stress, illness, and cancer. Therefore, an increase in glutathione levels is a beneficial effect.
In the study, the human liver cancer cell line, HepG2 cells were treated with DMSO (vehicle control), sulforaphane (SFN), silibinin (Silib), or the combination of sulforaphane and silibinin, for 24 hours. Cell lysates were collected and glutathione levels were measured using o-phthalaldehyde (OPT) as a fluorescent reagent. FIG. 5 and FIG. 6 show the results of the study.
In Part 1 of the study, the effect of 0.5 μM SFN was compared to various concentrations of silibinin and to the combination of 0.5 μM SFN and silibinin at various concentrations. […] An increase in glutathione levels is a beneficial effect. The results are depicted in FIG. 5.
In Part 2 of the study, the effect of 2 μM SFN was compared to various concentrations of silibinin and to the combination of 2 μM SFN and silibinin at various concentrations. […] An increase in glutathione levels is a beneficial effect to detoxify cells. The results are depicted in FIG. 6.

[6] = system: mammary tumors; conditions: Sprague-Dawley rats; cited from earlier work

Structure (SMILES)	Modulatory effect of increasing ascorbic acid concentration on myrosinase activity ([1]; Part 2: 250 mg broccoli seed extract, ascorbic acid 0.4 to 3.8 mmol/Liter)	Yield of sulforaphane versus ascorbic acid concentration [2]	Stoichiometry of enzymatic conversion of glucoraphanin to sulforaphane ([1]; control sample without ascorbic acid)	Elevated immunostaining of HO-1 enzyme [3] [fold]	Increase in NQO1 enzymatic activity [4] [fold]	Glutathione levels compared to DMSO (vehicle) control ([5]; Part 1, 24 hours: 0.5 μM SFN, 100, 200, 300 μM Silib, FIG. 5)	Glutathione levels compared to the control ([5]; Part 2, 24 hours: 2 μM SFN, 100, 300 μM Silib, FIG. 6)	Formation of mammary tumors [6]
O=C1O[C@H]([C@@H](O)CO)C(O)=C1O [Ascorbic Acid, ascorbic acid]	linear, increase in myrosinase-promoted conversion of glucoraphanin to sulforaphane is observed to about 2 mmol/L	direct correlation between larger yield of sulforaphane and higher concentrations of ascorbic acid						
C[S+]([O-])CCCC/C(=N\OS(=O)(=O)O)S[C@@H]1O[C@H](CO)[C@@H](O)[C@H](O)[C@H]1O (stereo partly drawn) [glucoraphanin, 1-S-[(1E)-5-(methylsulfinyl)-N-(sulfonatooxy)pentanimidoyl]-1-thio-β-D-glucopyranose]			equimolar conversion of glucoraphanin to sulforaphane	4	3			
C[S+]([O-])CCCCN=C=S (stereo not drawn) [sulforaphane, 1-isothiocyanato-4-methylsulfinylbutane]				4		remained the same	remained the same	effective in blocking the formation of mammary tumors
